Test results reported in patent publication US9365541B2, “Compounds for use in the treatment of parasitic diseases” (IRBM—SCIENCE PARK S.P.A., priority 2012, dated 2016).

What was measured:
human HDAC1 = target: T1, human HDAC1 (Homo sapiens, UniProt Q13547); test: Homo sapiens HDAC1 inhibition assay (Fluor-de-Lys, enzymatic); format: biochemical; settings: human HDAC enzymatic assay; read-out: hHDAC IC50
T1 construct: made in house; host or cells: HeLa (ATCC CCL-2), mammalian cells
Method in brief: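 Fluorogenic deacetylation read-out: trypsin developer, supplemented with 2 μM final TSA as stop, releases fluorophore from deacetylated substrate.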

[1] = tested on: Plasmodium falciparum 3D7; test: P. falciparum growth inhibition assay (Pf-LDH); format: cell-based; settings: Plasmodium falciparum, Erythrocyte; P. falciparum 3D7 infected erythrocytes, 72 h incubation, PfLDH readout
Method in brief: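 Compounds were tested against 72 h cultures of the 3D7 strain (0.25% parasitemia, 2% hematocrit, 37° C, low-oxygen gas). Parasite growth was quantified as lactate dehydrogenase activity via NBT reduction, absorbance 650 nm, after freezing and thawing.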

T1 sequence (Q13547 whole entry): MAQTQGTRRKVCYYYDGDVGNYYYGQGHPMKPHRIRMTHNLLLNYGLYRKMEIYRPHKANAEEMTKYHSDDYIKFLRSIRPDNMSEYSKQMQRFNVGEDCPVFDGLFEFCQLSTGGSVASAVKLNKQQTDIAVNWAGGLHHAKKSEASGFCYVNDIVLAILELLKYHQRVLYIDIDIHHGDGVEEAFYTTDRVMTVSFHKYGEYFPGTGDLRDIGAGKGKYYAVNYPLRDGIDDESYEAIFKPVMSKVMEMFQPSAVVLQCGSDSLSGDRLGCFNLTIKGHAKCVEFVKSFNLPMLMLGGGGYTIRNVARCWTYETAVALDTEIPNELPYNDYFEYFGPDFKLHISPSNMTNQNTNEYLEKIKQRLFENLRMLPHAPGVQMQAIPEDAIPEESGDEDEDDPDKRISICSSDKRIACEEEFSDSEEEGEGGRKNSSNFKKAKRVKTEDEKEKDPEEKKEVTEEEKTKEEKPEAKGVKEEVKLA

Row | SMILES | IC50 (human HDAC1) [nM] | EC50 [1] [nM]
1 | CNC(=O)CCCCC[C@H](NC(=O)Cc1c(C)[nH]c2ccc(OC)cc12)c1nnc(-c2ccc3ccccc3c2)[nH]1 [Entry 148, (S)-7-(2-(5-methoxy-2-methyl-1H-indol-3-yl)acetamido)-N-methyl-7-(5-(naphthalen-2-yl)-4H-1,2,4-triazol-3-yl)heptanamide] | < 1000 | < 1000
2 | CNC(=O)CCCCC[C@H](OC(=O)C12CCN(CC1)CC2)c1ncc(-c2cc3ccccc3nc2OC)o1 [Entry 56] | < 1000 | 1000 to 5000
3 | CNC(=O)CCCCC[C@H](NC(=O)C12CC3CC(CC(C3)C1)C2)c1ncc(-c2ccc(C(F)(F)F)cc2)[nH]1 [Entry 100] | > 5000 | 1000 to 5000
4 | CNC(=O)CCCCC[C@H](NC(=O)c1cnc(CN2CCCC2)s1)c1ncc(-c2ccc(-c3ccn(C)n3)cc2)[nH]1 [Entry 124, (S)-N-(1-(5-(4-(1-methyl-1H-pyrazol-3-yl)phenyl)-1H-imidazol-2-yl)-7-(methylamino)-7-oxoheptyl)-2-(pyrrolidin-1-ylmethyl)thiazole-5-carboxamide] | 1000 to 5000 | < 1000
5 | CNC(=O)CCCCC[C@H](NC(=O)c1cncs1)c1ncc(-c2ccc(-c3ncccn3)cc2)[nH]1 [Entry 120, (S)-N-(7-(methylamino)-7-oxo-1-(5-(4-(pyrimidin-2-yl)phenyl)-1H-imidazol-2-yl)heptyl)thiazole-5-carboxamide] | 1000 to 5000 | 1000 to 5000
6 | CNC(=O)CCCCC[C@H](NC(=O)c1cncs1)c1ncc(-c2ccc(-c3cc(C)[nH]n3)cc2)[nH]1 [Entry 59, (S)-N-(1-(5-(4-(5-methyl-1H-pyrazol-3-yl)phenyl)-1H-imidazol-2-yl)-7-(methylamino)-7-oxoheptyl)thiazole-5-carboxamide] | 1000 to 5000 | 1000 to 5000
7 | CNC(=O)CCCCC[C@H](NC(=O)c1cncs1)c1ncc(-c2cccc3c2OCCO3)[nH]1 [Entry 79] | 1000 to 5000 | > 5000
8 | CNC(=O)CCCCC[C@H](NC(=O)CN(C)C)c1ncc(-c2cc3ccccc3nc2OC)[nH]1 [Entry 179, (S)-7-(2-(dimethyl-amino)acetamido)-7-(5-(2-methoxyquinolin-3-yl)-1H-imidazol-2-yl)-N-methylheptanamide] | 1000 to 5000 | > 5000
9 | CNC(=O)CCCCC[C@H](NS(=O)(=O)c1cccc([N+](=O)[O-])c1)c1ncc(-c2ccc3ccccc3c2)[nH]1 [Entry 3] | < 1000 | < 1000
10 | CNC(=O)CCCCC[C@H](NC(=O)c1cccc(N2CCOCC2)c1)c1ncc(-c2ccc3ccccc3c2)[nH]1 [Entry 64, (S)-N-(7-(methylamino)-1-(5-(naphthalen-2-yl)-1H-imidazol-2-yl)-7-oxoheptyl)-3-morpholino-benzamide] | > 5000 | 1000 to 5000
11 | CNC(=O)CCCCC[C@H](NC(=O)c1cncs1)c1ncc(-c2ccc(-c3ccccc3)nc2OC)[nH]1 [Entry 192, (S)-N-(1-(5-(2-methoxy-6-phenylpyridin-3-yl)-1H-imidazol-2-yl)-7-(methylamino)-7-oxoheptyl)thiazole-5-carboxamide] | > 5000 | 1000 to 5000
12 | CCc1nc2ccccc2n1CCC(=O)N[C@@H](CCCCCC(=O)NC)c1ncc(-c2ccc3ccccc3c2)[nH]1 [Entry 150, (S)-7-(3-(2-ethyl-1H-benzo[d]imidazol-1-yl)propanamido)-N-methyl-7-(5-(naphthalen-2-yl)-1H-imidazol-2-yl)heptanamide] | < 1000 | < 1000
13 | CNC(=O)CCCCC[C@H](NC(=O)Cn1cncn1)c1ncc(-c2ccc3ccncc3c2)[nH]1 [Entry 89, (S)-7-(2-(1H-1,2,4-triazol-1-yl)acetamido)-7-(5-(isoquinolin-7-yl)-1H-imidazol-2-yl)-N-methylheptanamide] | 1000 to 5000 | 1000 to 5000
14 | CCN1CCCC(C(=O)N[C@@H](CCCCCC(=O)NC)c2ncc(-c3ccc4ccccc4c3)[nH]2)C1 (stereo partly drawn) [Entry 176, 1-ethyl-N-((S)-7-(methylamino)-1-(5-(naphthalen-2-yl)-1H-imidazol-2-yl)-7-oxo-heptyl)piperidine-3-carboxamide] | < 1000 | 1000 to 5000
15 | CNC(=O)CCCCC[C@H](NC(=O)CN1CCCC1)c1ncc(-c2ccc3ccncc3c2)[nH]1 [Entry 66] | 1000 to 5000 | > 5000
16 | CNC(=O)CCCCC[C@H](NC(=O)c1cncs1)c1ncc(-c2ccc3sccc3c2)[nH]1 [Entry 161, (S)-N-(1-(5-(benzo[b]thiophen-5-yl)-1H-imidazol-2-yl)-7-(methylamino)-7-oxoheptyl)thiazole-5-carboxamide] | 1000 to 5000 | 1000 to 5000
17 | CNC(=O)CCCCC[C@H](NC(=O)C12CCN(CC1)CC2)c1ncc(-c2ccc3cc(F)ccc3c2)[nH]1 [Entry 154, (S)-N-(1-(5-(6-fluoronaphthalen-2-yl)-1H-imidazol-2-yl)-7-(methylamino)-7-oxo-heptyl)quinuclidine-4-carboxamide] | < 1000 | < 1000
18 | CNC(=O)CCCCC[C@H](NC(=O)c1cncs1)c1ncc(-c2ccc(-c3ccccc3)s2)[nH]1 [Entry 205, (S)-N-(7-(methylamino)-7-oxo-1-(5-(5-phenylthiophen-2-yl)-1H-imidazol-2-yl)heptyl)thiazole-5-carboxamide] | 1000 to 5000 | 1000 to 5000
19 | CNC(=O)CCCCC[C@H](NC(=O)C1CCCN(C)C1)c1ncc(-c2cc3ccccc3nc2OC)[nH]1 (stereo partly drawn) [Entry 33, N-((S)-1-(5-(2-methoxyquinolin-3-yl)-1H-imidazol-2-yl)-7-(methylamino)-7-oxoheptyl)-1-methylpiperidine-3-carboxamide] | < 1000 | 1000 to 5000
20 | CNC(=O)CCCCC[C@H](NC(=O)c1cncs1)c1ncc(-c2ccc3ccnc(OC)c3c2)[nH]1 [Entry 219, (S)-N-(1-(5-(1-methoxyisoquinolin-7-yl)-1H-imidazol-2-yl)-7-(methylamino)-7-oxoheptyl)thiazole-5-carboxamide] | 1000 to 5000 | 1000 to 5000
21 | CNC(=O)CCCCC[C@H](NC(=O)Cc1nc(C)cs1)c1ncc(-c2ccc3ccncc3c2)[nH]1 [Entry 68] | 1000 to 5000 | > 5000
22 | CNC(=O)CCCCC[C@H](NC(=O)C12CCN(CC1)CC2)c1ncc(-c2ccc3ncccc3c2)[nH]1 [Entry 152] | < 1000 | 1000 to 5000
23 | CNC(=O)CCCCC[C@H](NC(=O)c1cnc(C)s1)c1ncc(-c2ccc(-c3ccn(C)n3)cc2)o1 [Entry 225, (S)-2-methyl-N-(1-(5-(4-(1-methyl-1H-pyrazol-3-yl)phenyl)oxazol-2-yl)-7-(methylamino)-7-oxoheptyl)thiazole-5-carboxamide] | > 5000 | 1000 to 5000
24 | CNC(=O)CCCCC[C@H](NC(=O)c1cncs1)c1ncc(-c2cnc3[nH]ncc3c2)[nH]1 [Entry 159, (S)-N-(1-(5-(1H-pyrazolo[3,4-b]pyridin-5-yl)-1H-imidazol-2-yl)-7-(methylamino)-7-oxoheptyl)thiazole-5-carboxamide] | > 5000 | > 5000
25 | CNC(=O)CCCCC[C@H](NC(=O)c1cncs1)c1ncc(-c2ccc(NC(C)=O)cc2)[nH]1 [Entry 53, (S)-N-(1-(5-(4-acetamidophenyl)-1H-imidazol-2-yl)-7-(methylamino)-7-oxoheptyl)thiazole-5-carboxamide] | 1000 to 5000 | 1000 to 5000
